Structures can show the parent of a compound that is named as a salt.
What was measured:
[1] = target: T1, human 5-hydroxytryptamine-2C (h5-HT2C) receptor (Homo sapiens, UniProt P28335); assay: 5-HT2C binding: [125I]DOI displacement in membranes of transfected CHO cells; settings: read-out: 5-HT2C Binding Ki avg
T1 construct: expressed in transfected cells; host or cells: CHO (Chinese Hamster Ovary) cells; membranes
T1 sequence (P28335 33-458): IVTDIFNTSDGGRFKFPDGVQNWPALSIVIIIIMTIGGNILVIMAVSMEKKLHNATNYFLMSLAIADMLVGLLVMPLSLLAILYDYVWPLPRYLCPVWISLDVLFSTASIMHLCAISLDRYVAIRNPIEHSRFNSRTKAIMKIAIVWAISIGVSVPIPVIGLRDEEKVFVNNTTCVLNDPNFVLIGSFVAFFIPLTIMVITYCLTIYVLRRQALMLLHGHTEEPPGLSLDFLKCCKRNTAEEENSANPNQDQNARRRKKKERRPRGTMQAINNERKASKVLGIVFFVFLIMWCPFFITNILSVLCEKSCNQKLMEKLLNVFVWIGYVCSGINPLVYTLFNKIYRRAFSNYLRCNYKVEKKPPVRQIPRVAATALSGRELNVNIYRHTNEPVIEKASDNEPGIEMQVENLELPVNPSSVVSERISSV

| SMILES | Ki [1] [nM] | melting point [°C] |
| --- | --- | --- |
| C[C@]1(CN)COc2cccc(-c3ccc(Cl)cc3)c2O1 (as salt: fumarate) [Compound I-51, {[(2S)-8-(4-Chlorophenyl)-2-methyl-2,3-dihydro-1,4-benzodioxin-2-yl]methyl}amine] |  | 155 to 158 |
| CCCNCC1COc2cccc(-c3ccc(Cl)cc3Cl)c2O1 (stereo not drawn) (as salt: fumarate) [Compound I-35, N-{[8-(2,4-Dichlorophenyl)-2,3-dihydro-1,4-benzodioxin-2-yl]methyl}propan-1-amine] |  | 178 to 179 |
| NC[C@H]1COc2cc(Cl)cc(-c3ccccc3Cl)c2O1 (as salt: hydrochloride) [Compound I-58, (2S)-[6-Chloro-8-(2-chloro-phenyl)-2,3-dihydro-benzo[1,4]dioxin-2-yl]-methylamine] |  | 228 to 230 |
| CNCC1COc2cccc(-c3cc(C)ccc3C)c2O1 (stereo not drawn) (as salt: fumarate) [Compound I-26, {[8-(2,5-Dimethylphenyl)-2,3-dihydro-1,4-benzodioxin-2-yl]methyl}methylamine] |  | 174 to 175 |
| NC[C@H]1COc2cc(F)cc(-c3c(Cl)cccc3Cl)c2O1 (as salt: salt) [Compound I-47, {[(2S)-8-(2,6-Dichlorophenyl)-6-fluoro-2,3-dihydro-1,4-benzodioxin-2-yl]methyl}amine] |  | 165 to 167 |
| Cc1ccccc1-c1cccc2c1OC(CN)CO2 (stereo not drawn) (as salt: fumarate) [Compound I-3, {[8-(2-Methylphenyl)-2,3-dihydro-1,4-benzodioxin-2-yl]methyl}amine] |  | 201 to 202 |
| Cc1ccc(C)c(-c2cccc3c2OC(CN)CO3)c1 (stereo not drawn) (as salt: fumarate) [Compound I-11, {[8-(2,5-Dimethylphenyl)-2,3-dihydro-1,4-benzodioxin-2-yl]methyl}amine] |  | 199 to 200 |
| NCC1COc2cccc(-c3cccc(F)c3F)c2O1 (stereo not drawn) (as salt: fumarate) [Compound I-13, {[8-(2,3-Difluorophenyl)-2,3-dihydro-1,4-benzodioxin-2-yl]methyl}amine] |  | 189 to 190 |
| C[C@]1(CN)COc2cccc(-c3ccsc3)c2O1 (as salt: fumarate) [Compound I-53, {[(2S)-2-Methyl-8-thien-3-yl-2,3-dihydro-1,4-benzodioxin-2-yl]methyl}amine] |  | 158 to 161 |
| NCC1COc2cccc(-c3cccc(Cl)c3Cl)c2O1 (stereo not drawn) (as salt: fumarate) [Compound I-6, {[8-(2,3-Dichlorophenyl)-2,3-dihydro-1,4-benzodioxin-2-yl]methyl}amine] |  | 211 to 212 |
| NC[C@H]1COc2cccc(-c3c(Cl)cccc3Cl)c2O1 (as salt: salt) [Compound I-46, {[(2S)-8-(2,6-Dichlorophenyl)-2,3-dihydro-1,4-benzodioxin-2-yl]methyl}amine] |  | 165 to 167 |
| NCC1COc2cccc(-c3cc(Cl)ccc3Cl)c2O1 (stereo not drawn) (as salt: fumarate) [Compound I-8, {[8-(2,5-Dichlorophenyl)-2,3-dihydro-1,4-benzodioxin-2-yl]methyl}amine] |  | 206 to 207 |
| CNCC1COc2cccc(-c3cccc(F)c3F)c2O1 (stereo not drawn) (as salt: fumarate) [Compound I-27, {[8-(2,3-Difluorophenyl)-2,3-dihydro-1,4-benzodioxin-2-yl]methyl}methylamine] |  | 181 to 182 |
| C[C@]1(CN)COc2cccc(-c3cccc(Cl)c3)c2O1 (as salt: fumarate) [Compound I-50, {[(2S)-8-(3-Chlorophenyl)-2-methyl-2,3-dihydro-1,4-benzodioxin-2-yl]methyl}amine] |  | 110 to 113 |
| Clc1ccccc1-c1cccc2c1OC(CNC1CC1)CO2 (stereo not drawn) (as salt: fumarate) [Compound I-43, N-{[8-(2-Chlorophenyl)-2,3-dihydro-1,4-benzodioxin-2yl]methyl}cyclopropanamine] |  | 148 to 149 |
| CNCC1COc2cccc(-c3cccc(OC)c3OC)c2O1 (stereo not drawn) (as salt: fumarate) [Compound I-30, {[8-(2,3-Dimethoxyphenyl)-2,3-dihydro-1,4-benzodioxin-2-yl]methyl}methylamine] |  | 159 to 160 |
| CNCC1COc2cccc(-c3ccccc3Cl)c2O1 (stereo not drawn) (as salt: fumarate) [Compound I-21, {[8-(2-Chlorophenyl)-2,3-dihydro-1,4-benzodioxin-2-yl]methyl}methylamine] |  | 174 to 175 |
| CNCC1COc2cccc(-c3ccccc3F)c2O1 (stereo not drawn) (as salt: fumarate) [Compound I-18, {[8-(2-Fluorophenyl)-2,3-dihydro-1,4-benzodioxin-2-yl]methyl}methylamine] |  | 191 to 192 |
| CC(C)NCC1COc2cccc(-c3ccc(Cl)cc3Cl)c2O1 (stereo not drawn) (as salt: fumarate) [Compound I-37, N-{[8-(2,4-Dichlorophenyl)-2,3-dihydro-1,4-benzodioxin-2-yl]methyl}propan-2-amine] |  | 222 to 223 |
| CNCC1COc2cccc(-c3ccccc3OC)c2O1 (stereo not drawn) (as salt: fumarate) [Compound I-19, {[8-(2-Methoxyphenyl)-2,3-dihydro-1,4-benzodioxin-2-yl]methyl}methylamine] |  | 168 to 169 |

Continued, values first:

| Ki [1] [nM] | melting point [°C] | SMILES |
| --- | --- | --- |
| < 50 |  | Cc1cc(Cl)ccc1-c1cc(Cl)cc2c1O[C@@H](CN)CO2 [Compound I-65, (2S)-[6-Chloro-8-(4-chloro-2-methyl-phenyl)-2,3-dihydro-benzo[1,4]dioxin-2-yl]-methylamine] |
| 50 to 200 |  | NCC1Oc2cc(F)cc(-c3ccc(Cl)cc3)c2O1 (stereo not drawn) [Compound I-79, 1-[4-(4-Chloro-phenyl)-6-fluoro-1,3-benzodioxol-2-yl]methanamine] |
|  | 205 to 207 | NC[C@H]1COc2cc(Cl)cc(-c3cc(Cl)ccc3Cl)c2O1 (as salt: hydrochloride) [Compound I-67, (2S)-[6-Chloro-8-(2,5-dichloro-phenyl)-2,3-dihydro-benzo[1,4]dioxin-2-yl]-methyl amine] |
|  | > 250 | NCC1Oc2cc(Cl)cc(-c3ccccc3Cl)c2O1 (stereo not drawn) (as salt: hydrochloride) [Compound I-90, [6-Chloro-4-(2-chloro-phenyl)-benzo[1,3]dioxol-2-yl]-methylamine] |
|  | 188 to 189 | COc1ccccc1-c1cc(Cl)cc2c1O[C@@H](CN)CO2 (as salt: hydrochloride) [Compound I-61, (2S)-[6-Chloro-8-(2-methoxy-phenyl)-2,3-dihydro-benzo[1,4]dioxin-2-yl]-methylamine] |
|  | 231 to 233 | NC[C@H]1COc2cc(Cl)cc(-c3ccccc3C(F)(F)F)c2O1 (as salt: hydrochloride) [Compound I-62, (2S)-[6-Chloro-8-(2-trifluoromethyl-phenyl)-2,3-dihydro-benzo[1,4]dioxin-2-yl]-methylamine] |
|  | > 245 | Cc1ccccc1-c1cc(Cl)cc2c1O[C@@H](CN)CO2 (as salt: hydrochloride) [Compound I-60, (2S)-[6-Chloro-8-(2-methyl-phenyl)-2,3-dihydro-benzo[1,4]dioxin-2-yl]-methylamine] |
|  | 184 to 186 | COc1ccccc1-c1cc(F)cc2c1OC(CN)O2 (stereo not drawn) (as salt: hydrochloride) [Compound I-76, 1-[6-Fluoro-4-(2-methoxyphenyl)-1,3-benzodioxol-2-yl]methanamine] |
|  | 204 to 205 | NCC1Oc2cc(F)cc(-c3cc(Cl)ccc3Cl)c2O1 (stereo not drawn) (as salt: hydrochloride) [Compound I-81, 1-[4-(2,5-Dichloro-phenyl)-6-fluoro-1,3-benzodioxol-2-yl]methanamine] |
|  | 196 to 198 | NCC1Oc2cc(Cl)cc(-c3ccccc3-c3ccccc3)c2O1 (stereo not drawn) (as salt: hydrochloride) [Compound I-101, [6-Chloro-4-biphenyl-benzo[1,3]dioxol-2-yl]-methylamine] |
|  | 230 to 232 | COc1ccc(Cl)cc1-c1cc(Cl)cc2c1O[C@@H](CN)CO2 (as salt: hydrochloride) [Compound I-68, (2S)-[6-Chloro-8-(5-chloro-2-methoxy-phenyl)-2,3-dihydro-benzo[1,4]dioxin-2-yl]-methylamine] |
|  | 262 to 264 | NCC1Oc2cc(F)cc(-c3ccc(Cl)cc3)c2O1 (stereo not drawn) (as salt: hydrochloride) [Compound I-79, 1-[4-(4-Chloro-phenyl)-6-fluoro-1,3-benzodioxol-2-yl]methanamine] |
|  | 140 | NC[C@H]1COc2cc(Cl)cc(-c3ccc(Cl)cc3Cl)c2O1 (as salt: hydrochloride) [Compound I-64, (2S)-[6-Chloro-8-(2,4-dichloro-phenyl)-2,3-dihydro-benzo[1,4]dioxin-2-yl]-methyl amine] |
|  | 197 to 200 | Cc1ccccc1-c1cc(F)cc2c1OC(CN)O2 (stereo not drawn) (as salt: hydrochloride) [Compound I-80, 1-[4-(2-Methyl-phenyl)-6-fluoro-1,3-benzodioxol-2-yl]methanamine] |
|  | > 250 | Cc1ccccc1-c1cc(Cl)cc2c1OC(CN)O2 (stereo not drawn) (as salt: hydrochloride) [Compound I-91, [6-Chloro-4-(2-methyl-phenyl)-benzo[1,3]dioxol-2-yl]-methylamine] |
|  | 234 to 235 | NCC1Oc2cc(F)cc(-c3ccccc3F)c2O1 (stereo not drawn) (as salt: hydrochloride) [Compound I-83, 1-[4-(2-Fluoro-phenyl)-6-fluoro-1,3-benzodioxol-2-yl]methanamine] |

From patent US20060241172A1, “Benzodioxane and benzodioxolane derivatives and uses thereof” (Wyeth, priority 2005, published 2006)
